Test results as given in ChEMBL document CHEMBL1909046, “DrugMatrix in vitro pharmacology data”.

What was measured:
Substance-K receptor = biological target: T1, Substance-K receptor (Homo sapiens, UniProt P21452); format: cell membranes, CHO, Membrane; conditions: cho; further: in other assays of this panel Not Active means under 50% inhibition at 10 µM
T1 sequence (P21452 whole entry): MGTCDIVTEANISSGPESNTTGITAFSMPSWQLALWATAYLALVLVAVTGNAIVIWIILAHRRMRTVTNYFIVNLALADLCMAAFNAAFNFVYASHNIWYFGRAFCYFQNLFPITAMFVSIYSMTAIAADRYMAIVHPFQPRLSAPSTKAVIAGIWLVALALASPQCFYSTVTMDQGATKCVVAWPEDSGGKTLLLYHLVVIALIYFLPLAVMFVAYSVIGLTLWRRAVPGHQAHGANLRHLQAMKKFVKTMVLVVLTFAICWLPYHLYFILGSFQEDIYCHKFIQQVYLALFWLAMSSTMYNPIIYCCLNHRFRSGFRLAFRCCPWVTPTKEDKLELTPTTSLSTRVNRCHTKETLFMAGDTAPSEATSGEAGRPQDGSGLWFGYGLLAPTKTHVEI

[1] = DRUGMATRIX: Phorbol Ester radioligand binding (ligand: [3H] PDBu); format: cell membranes, Mus musculus, ICR, Brain, Membrane; conditions: Not Active = under 50% inhibition at 10 µM
[2] = DRUGMATRIX: ATPase, Na+/K+ enzyme inhibition (substrate: ATP); format: tissue-based, Sus scrofa, Heart; conditions: Not Active = under 50% inhibition at 10 µM
[3] = DRUGMATRIX: Purinergic P2X radioligand binding (ligand: [3H] alpha, beta-Methylene-ATP); format: cell membranes, Oryctolagus cuniculus, New Zealand albino, Urinary bladder, Membrane; conditions: Not Active = under 50% inhibition at 10 µM
[4] = biological target: T2, Muscarinic acetylcholine receptor M4 (Homo sapiens, UniProt P08173); format: cell membranes, CHO-K1, Membrane; conditions: cho-k1; further: in other assays of this panel Not Active means under 50% inhibition at 10 µM
T2 sequence (P08173 whole entry): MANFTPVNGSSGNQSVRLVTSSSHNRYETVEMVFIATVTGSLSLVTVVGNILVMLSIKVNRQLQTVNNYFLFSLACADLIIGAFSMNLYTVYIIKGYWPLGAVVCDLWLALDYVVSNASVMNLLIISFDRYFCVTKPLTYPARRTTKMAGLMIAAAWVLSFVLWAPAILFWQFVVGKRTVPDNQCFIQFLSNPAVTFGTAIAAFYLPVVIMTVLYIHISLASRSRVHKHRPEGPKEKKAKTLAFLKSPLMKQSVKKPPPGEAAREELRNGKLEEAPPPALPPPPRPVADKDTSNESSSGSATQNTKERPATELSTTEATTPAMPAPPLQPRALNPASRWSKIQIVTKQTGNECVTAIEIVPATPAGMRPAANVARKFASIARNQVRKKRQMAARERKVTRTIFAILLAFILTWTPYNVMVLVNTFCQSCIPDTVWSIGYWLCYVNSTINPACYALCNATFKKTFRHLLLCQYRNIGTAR

[5] = biological target: Vascular endothelial growth factor receptor 1 (Homo sapiens, UniProt P17948); format: cell-based; conditions: huvec; further: in other assays of this panel Not Active means under 50% inhibition at 10 µM
Vascular endothelial growth factor receptor 1, sequence (P17948 whole entry): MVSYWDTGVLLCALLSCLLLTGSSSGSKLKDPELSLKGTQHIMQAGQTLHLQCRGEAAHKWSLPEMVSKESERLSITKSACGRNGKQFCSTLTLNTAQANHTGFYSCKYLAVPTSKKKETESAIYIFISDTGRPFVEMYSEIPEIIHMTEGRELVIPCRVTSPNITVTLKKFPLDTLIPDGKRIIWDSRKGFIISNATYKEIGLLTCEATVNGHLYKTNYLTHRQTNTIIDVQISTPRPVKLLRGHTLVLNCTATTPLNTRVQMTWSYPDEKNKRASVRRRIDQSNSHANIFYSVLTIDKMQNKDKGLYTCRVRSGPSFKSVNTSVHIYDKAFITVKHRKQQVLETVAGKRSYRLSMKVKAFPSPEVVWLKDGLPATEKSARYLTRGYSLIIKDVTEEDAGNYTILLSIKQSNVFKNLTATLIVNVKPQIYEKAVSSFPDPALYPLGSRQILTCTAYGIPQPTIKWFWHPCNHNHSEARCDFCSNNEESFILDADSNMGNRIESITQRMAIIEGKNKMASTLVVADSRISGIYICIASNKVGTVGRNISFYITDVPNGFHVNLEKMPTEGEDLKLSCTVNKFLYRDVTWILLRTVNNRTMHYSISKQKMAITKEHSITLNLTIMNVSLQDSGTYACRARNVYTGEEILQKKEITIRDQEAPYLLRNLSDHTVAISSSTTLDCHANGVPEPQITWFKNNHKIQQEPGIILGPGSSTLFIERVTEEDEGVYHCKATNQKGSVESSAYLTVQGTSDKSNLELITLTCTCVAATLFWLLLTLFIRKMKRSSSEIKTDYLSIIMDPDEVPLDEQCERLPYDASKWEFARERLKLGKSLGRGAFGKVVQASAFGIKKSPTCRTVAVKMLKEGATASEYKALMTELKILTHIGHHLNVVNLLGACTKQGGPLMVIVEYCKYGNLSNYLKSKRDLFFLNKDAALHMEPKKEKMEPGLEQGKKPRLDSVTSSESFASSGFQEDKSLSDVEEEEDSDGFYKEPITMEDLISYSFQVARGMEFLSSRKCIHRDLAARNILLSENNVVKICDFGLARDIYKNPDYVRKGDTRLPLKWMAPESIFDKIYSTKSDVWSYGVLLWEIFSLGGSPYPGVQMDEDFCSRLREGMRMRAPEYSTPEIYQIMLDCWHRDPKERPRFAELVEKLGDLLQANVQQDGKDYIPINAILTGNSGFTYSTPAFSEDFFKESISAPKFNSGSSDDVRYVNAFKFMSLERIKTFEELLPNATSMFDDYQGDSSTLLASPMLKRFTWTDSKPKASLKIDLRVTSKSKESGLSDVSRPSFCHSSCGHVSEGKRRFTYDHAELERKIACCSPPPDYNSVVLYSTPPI

[6] = biological target: T3, Alpha-2C adrenergic receptor (Homo sapiens, UniProt P18825); assay: DRUGMATRIX: Adrenergic Alpha-2C radioligand binding (ligand: [3H] MK-912); format: cell membranes, Sf9, Membrane; conditions: sf9
T3 sequence (P18825 whole entry): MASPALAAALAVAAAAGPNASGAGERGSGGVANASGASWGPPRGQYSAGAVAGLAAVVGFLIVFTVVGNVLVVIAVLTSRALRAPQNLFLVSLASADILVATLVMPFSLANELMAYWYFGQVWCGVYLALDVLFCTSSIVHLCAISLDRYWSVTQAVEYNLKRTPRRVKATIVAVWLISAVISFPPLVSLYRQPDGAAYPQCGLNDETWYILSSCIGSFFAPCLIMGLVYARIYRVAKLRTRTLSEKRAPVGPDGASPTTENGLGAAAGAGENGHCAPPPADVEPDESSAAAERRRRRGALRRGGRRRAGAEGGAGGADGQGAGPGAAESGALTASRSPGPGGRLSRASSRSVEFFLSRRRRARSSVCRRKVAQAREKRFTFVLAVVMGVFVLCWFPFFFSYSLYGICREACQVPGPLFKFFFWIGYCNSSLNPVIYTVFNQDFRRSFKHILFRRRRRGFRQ

CHROMIC CHLORIDE
Not Active: IC50 (Substance-K receptor) | Ki (Substance-K receptor) | IC50 [1] | Ki [1] | IC50 [2] | Ki [2] | IC50 [3] | Ki [3] | IC50 [4] | Ki [4] | IC50 [5] | Ki [5] | IC50 [6] | Ki [6]

CCCCCCNC(=O)n1cc(F)c(=O)[nH]c1=O [CARMOFUR]
Not Active: IC50 (Substance-K receptor) | IC50 [1] | Ki [1] | IC50 [2] | Ki [2] | IC50 [3] | Ki [3] | IC50 [4] | IC50 [5] | IC50 [6]

O=C(O)CCc1nc(-c2ccccc2)c(-c2ccccc2)o1 [OXAPROZIN]
Not Active: IC50 (Substance-K receptor) | IC50 [1] | Ki [1] | IC50 [2] | Ki [2] | IC50 [3] | Ki [3] | IC50 [4] | IC50 [5] | IC50 [6]

CCN1C[C@]2(COC)[C@H](O)C[C@H](OC)[C@@]34[C@@H]5C[C@@]6(O)[C@H](OC(=O)c7ccccc7)[C@@H]5[C@@](OC(C)=O)([C@@H]([C@H](OC)[C@H]23)[C@@H]14)[C@@H](O)[C@@H]6OC [ACONITINE]
Not Active: IC50 (Substance-K receptor) | IC50 [1] | Ki [1] | IC50 [2] | Ki [2] | IC50 [3] | Ki [3] | IC50 [4] | IC50 [5] | IC50 [6]

Oc1ccccc1 [PHENOL]
Not Active: IC50 (Substance-K receptor) | IC50 [1] | Ki [1] | IC50 [2] | Ki [2] | IC50 [3] | Ki [3] | IC50 [4] | IC50 [5] | IC50 [6]

Nc1nc(F)nc2c1ncn2[C@@H]1O[C@H](CO)[C@@H](O)[C@@H]1O [FLUDARABINE]
Not Active: IC50 (Substance-K receptor) | IC50 [1] | Ki [1] | IC50 [2] | Ki [2] | IC50 [3] | Ki [3] | IC50 [4] | IC50 [5] | IC50 [6]

O=C1CN(/N=C/c2ccc([N+](=O)[O-])o2)C(=O)N1 [NITROFURANTOIN]
Not Active: IC50 (Substance-K receptor) | IC50 [1] | Ki [1] | IC50 [2] | Ki [2] | IC50 [3] | Ki [3] | IC50 [4] | IC50 [5] | IC50 [6]

CC12CCC(CC1=O)C2(C)C (centres undefined) [CAMPHOR]
Not Active: IC50 (Substance-K receptor) | IC50 [1] | Ki [1] | IC50 [2] | Ki [2] | IC50 [3] | Ki [3] | IC50 [4] | IC50 [5] | IC50 [6]

Nc1nc(N)c2nc(CNc3ccc(C(=O)N[C@@H](CCC(=O)O)C(=O)O)cc3)cnc2n1 [AMINOPTERIN]
Not Active: IC50 (Substance-K receptor) | IC50 [1] | Ki [1] | IC50 [2] | Ki [2] | IC50 [3] | Ki [3] | IC50 [4] | IC50 [5] | IC50 [6]

Cc1c(N)nc([C@H](CC(N)=O)NC[C@H](N)C(N)=O)nc1C(=O)N[C@H](C(=O)N[C@H](C)[C@@H](O)[C@H](C)C(=O)N[C@H](C(=O)NCCc1nc(-c2nc(C(=O)NCCC[S+](C)C)cs2)cs1)[C@@H](C)O)[C@@H](O[C@@H]1O[C@@H](CO)[C@@H](O)[C@H](O)[C@@H]1O[C@H]1O[C@H](CO)[C@@H](O)[C@H](OC(N)=O)[C@@H]1O)c1c[nH]cn1.[Br-] [BLEOMYCIN A2]
Not Active: IC50 (Substance-K receptor) | IC50 [1] | Ki [1] | IC50 [2] | Ki [2] | IC50 [3] | Ki [3] | IC50 [4] | IC50 [5] | IC50 [6]

OC[C@H]1O[C@@H]2O[C@H]3[C@H](O)[C@@H](O)[C@@H](O[C@H]4[C@H](O)[C@@H](O)[C@@H](O[C@H]5[C@H](O)[C@@H](O)[C@@H](O[C@H]6[C@H](O)[C@@H](O)[C@@H](O[C@H]7[C@H](O)[C@@H](O)[C@@H](O[C@H]1[C@H](O)[C@H]2O)O[C@@H]7CO)O[C@@H]6CO)O[C@@H]5CO)O[C@@H]4CO)O[C@@H]3CO [ALFADEX]
Not Active: IC50 (Substance-K receptor) | IC50 [1] | Ki [1] | IC50 [2] | Ki [2] | IC50 [3] | Ki [3] | IC50 [4] | IC50 [5] | IC50 [6]

O=C(O)CNCP(=O)(O)O [GLYPHOSATE]
Not Active: IC50 (Substance-K receptor) | IC50 [1] | Ki [1] | IC50 [2] | Ki [2] | IC50 [3] | Ki [3] | IC50 [4] | IC50 [5] | IC50 [6]

O=C(Nc1ccc(Cl)c(Cl)c1)c1cc(Cl)cc(Cl)c1O [3,3',4',5-TETRACHLOROSALICYLANILIDE]
Not Active: IC50 (Substance-K receptor) | IC50 [1] | Ki [1] | IC50 [2] | Ki [2] | IC50 [3] | Ki [3] | IC50 [4] | IC50 [5] | IC50 [6]

COC(=O)Nc1nc2ccc(Sc3ccccc3)cc2[nH]1 [FENBENDAZOLE]
Not Active: IC50 (Substance-K receptor) | IC50 [1] | Ki [1] | IC50 [2] | Ki [2] | IC50 [3] | Ki [3] | IC50 [4] | IC50 [5] | IC50 [6]

Nc1ccc(C(=O)O)c(O)c1 [AMINOSALICYLIC ACID]
Not Active: IC50 (Substance-K receptor) | IC50 [1] | Ki [1] | IC50 [2] | Ki [2] | IC50 [3] | Ki [3] | IC50 [4] | IC50 [5] | IC50 [6]
